In patent US12479878B2, “Crystallization of 2′-FL” (Glycom A/S, priority 2020, dated 2025):

Tests used:
Assay type in all cases: physicochemical
[1] = Pressure filtration of crystallization slurry (overall filtration rate); settings: for filtration rate: 75 ml slurry pressure filtered at ΔP=1 bar, polypropylene filter cloth pore size about 3 μm, filtration area 13 cm^2, filtrate volume/(time·filter area); for filterability improvement relative to prior art: relative to WO 2016/095924 example 2 slurry
Experimental: A sample of the crystallization slurry (75 ml) after completing the crystallization from examples 1-3 above, respectively, and from the prior art (according to WO 2016/095924 example 2, with the difference that the procedure was conducted at 35° C. instead of room temperature and the concentrated syrup was of 62° Bx (140.2 g; containing 48.8 wt % of 2′-FL, 1.3 wt % of lactose and 5.4 wt % of DFL)) was collected and pressure filtered at ΔP=1 bar using a polypropylene filter cloth with a pore size of about 3 μm and a filtration area of 13 cm^2, and the time until the beginning of the liquid-gas mass transfer was measured. The filterability of the slurries was compared by calculating an overall filtration rate according to the following equation: filtrate volume [cm^3]/(time [sec]·filter area [cm^2]).

[2] = Loss on drying of wet filter cake; settings: for LoD relative to prior art: relative to WO 2016/095924 example 2 filter cake
Experimental: A sample of the slurry (75 ml) was collected and pressure filtered at 1 bar. Another sample of the slurry (75 ml) was collected, pressure filtered at 1 bar and the filter cake was washed with acetic acid (28 g). The washed and the unwashed solid wet filter cakes were dried overnight at 65° C. and 50 mbar generating loss on drying (LoD) of 17.3% and 23.2 respectively. The concentrations of 2′-FL and other impurities in the mother liquor as well as dried solids were assayed via HPLC. The unwashed dried crystalline material contained 95.3% of 2′-FL and yielded 81.5% of crystalline 2′-FL polymorph II, while the purity of the washed filter cake increased to 97.0%.
Then the filtration was continued for 60 sec. The so-obtained solid wet filter cake was dried overnight (14 hours) at 65° C. and 50 mbar, and loss of drying was determined (see data in the table below).

[3] = Water content of dried crystal powder by Karl-Fischer titration; settings: dried crystals
Experimental: (§1) The water content of dried crystal powder was measured by Karl-Fischer titration. Residual AcOH content was measured using Megazyme K-ACETRM 07/12.

[4] = Residual AcOH content (Megazyme K-ACETRM 07/12); settings: dried crystals
Experimental: as §1

[5] = filter cake washed with acetic acid, dried overnight at 65° C. and 50 mbar
[6] = unwashed solid wet filter cake dried overnight (14 hours) at 65° C. and 50 mbar

## C[C@@H]1OC(O[C@H]2[C@H](O[C@H]3[C@H](O)[C@@H](O)C(O)O[C@@H]3CO)O[C@H](CO)[C@H](O)[C@@H]2O)[C@@H](O)[C@H](O)[C@@H]1O (single isomer, unassigned) [Example 1, 2′-O-fucosyllactose]
[1]
  filtration rate: 0.39 cm/s
  filterability improvement relative to prior art: 6.12x
[2]; [5]
  LoD (loss on drying): 17.3%
[2]
  LoD relative to prior art: 0.44-fold fold lower
[2]; [6]
  LoD (loss on drying): 23.2%
[3]
  H2O content: 0.06 wt %
[4]
  AcOH content: 0.15 wt %

## C[C@@H]1OC(O[C@H]2[C@H](O[C@H]3[C@H](O)[C@@H](O)C(O)O[C@@H]3CO)O[C@H](CO)[C@H](O)[C@@H]2O)[C@@H](O)[C@H](O)[C@@H]1O (single isomer, unassigned) [Example 2, 2′-O-fucosyllactose]
[1]
  filtration rate: 0.62 cm/s
  filterability improvement relative to prior art: 9.78x
[2]
  LoD relative to prior art: 0.46-fold fold lower
[2]; [6]
  LoD (loss on drying): 24.7%
[3]
  H2O content: 0.05 wt %
[4]
  AcOH content: 0.36 wt %

## C[C@@H]1OC(O[C@H]2[C@H](O[C@H]3[C@H](O)[C@@H](O)C(O)O[C@@H]3CO)O[C@H](CO)[C@H](O)[C@@H]2O)[C@@H](O)[C@H](O)[C@@H]1O (single isomer, unassigned) [Example 3, 2′-O-fucosyllactose]
[1]
  filtration rate: 0.16 cm/s
  filterability improvement relative to prior art: 2.57x
[2]; [5]
  LoD (loss on drying): 16.1%
[2]
  LoD relative to prior art: 0.42-fold fold lower
[2]; [6]
  LoD (loss on drying): 22.5%
[4]
  AcOH content: 0.11 wt %

## C[C@@H]1OC(O[C@H]2[C@H](O[C@H]3[C@H](O)[C@@H](O)C(O)O[C@@H]3CO)O[C@H](CO)[C@H](O)[C@@H]2O)[C@@H](O)[C@H](O)[C@@H]1O (single isomer, unassigned) [Example 4, 2′-O-fucosyllactose]
[2]; [6]
  LoD (loss on drying): 48.5%

## C[C@@H]1OC(O[C@H]2[C@H](O[C@H]3[C@H](O)[C@@H](O)C(O)O[C@@H]3CO)O[C@H](CO)[C@H](O)[C@@H]2O)[C@@H](O)[C@H](O)[C@@H]1O (stereo partly drawn) [WO 2016/095924, 2′-O-fucosyllactose, reference compound]
[1]
  filtration rate: 0.064 cm/s
[2]; [6]
  LoD (loss on drying): 52.9%
[3]
  H2O content: 0.63 wt %
[4]
  AcOH content: 0.58 wt %
